The record followed here is article PMC12512194, “The Allosteric Regulator Inositol Phosphate Dramatically Affects the Efficacy and Selectivity of Inhibitors for Different HDAC Complexes” (Journal of the American Chemical Society, 2025).

Read-outs that look alike come from different tables or passages of the source.

Holding throughout (type): biochemical
One assay deals with T1, HDAC1-NuRD (Homo sapiens, UniProt Q13547).
T1 construct: We used HDAC complexes with the most components that could be stably expressed, with full-length proteins where feasible; made in house; host or cells: HEK293F
T1 sequence (Q13547 whole entry): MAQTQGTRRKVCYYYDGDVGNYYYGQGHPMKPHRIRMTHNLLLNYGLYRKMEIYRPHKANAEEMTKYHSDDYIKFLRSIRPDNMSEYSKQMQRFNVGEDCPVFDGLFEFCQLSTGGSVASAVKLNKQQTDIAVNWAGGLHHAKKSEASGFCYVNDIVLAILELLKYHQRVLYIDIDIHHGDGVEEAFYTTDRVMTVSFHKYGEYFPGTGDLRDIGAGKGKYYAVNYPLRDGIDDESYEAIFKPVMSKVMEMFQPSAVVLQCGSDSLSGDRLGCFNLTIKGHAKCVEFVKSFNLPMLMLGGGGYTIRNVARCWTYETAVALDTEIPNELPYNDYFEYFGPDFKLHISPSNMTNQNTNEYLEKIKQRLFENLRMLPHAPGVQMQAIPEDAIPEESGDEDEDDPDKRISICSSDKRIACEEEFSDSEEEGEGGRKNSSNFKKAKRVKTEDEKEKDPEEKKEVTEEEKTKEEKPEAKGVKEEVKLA
T1 sequence (Q13330 whole entry partner): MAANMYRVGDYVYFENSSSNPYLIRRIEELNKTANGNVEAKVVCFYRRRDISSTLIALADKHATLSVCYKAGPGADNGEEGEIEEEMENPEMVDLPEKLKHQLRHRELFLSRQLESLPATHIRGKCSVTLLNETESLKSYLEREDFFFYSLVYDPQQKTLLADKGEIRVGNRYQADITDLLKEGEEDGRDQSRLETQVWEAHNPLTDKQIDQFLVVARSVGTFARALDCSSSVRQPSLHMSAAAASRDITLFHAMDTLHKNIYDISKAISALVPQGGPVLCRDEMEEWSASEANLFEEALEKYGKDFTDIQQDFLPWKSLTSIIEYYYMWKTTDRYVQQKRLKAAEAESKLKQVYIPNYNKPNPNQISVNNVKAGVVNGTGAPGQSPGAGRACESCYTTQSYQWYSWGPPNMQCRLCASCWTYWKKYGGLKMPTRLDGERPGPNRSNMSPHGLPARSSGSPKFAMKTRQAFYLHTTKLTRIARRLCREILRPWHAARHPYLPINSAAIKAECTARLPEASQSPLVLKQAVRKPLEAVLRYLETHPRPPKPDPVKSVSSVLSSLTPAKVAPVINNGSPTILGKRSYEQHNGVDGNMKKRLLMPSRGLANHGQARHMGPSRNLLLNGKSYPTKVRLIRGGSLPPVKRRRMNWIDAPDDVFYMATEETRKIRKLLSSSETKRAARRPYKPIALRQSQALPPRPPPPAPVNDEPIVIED
T1 sequence (Q9UBB5 145-411 partner limits assumed): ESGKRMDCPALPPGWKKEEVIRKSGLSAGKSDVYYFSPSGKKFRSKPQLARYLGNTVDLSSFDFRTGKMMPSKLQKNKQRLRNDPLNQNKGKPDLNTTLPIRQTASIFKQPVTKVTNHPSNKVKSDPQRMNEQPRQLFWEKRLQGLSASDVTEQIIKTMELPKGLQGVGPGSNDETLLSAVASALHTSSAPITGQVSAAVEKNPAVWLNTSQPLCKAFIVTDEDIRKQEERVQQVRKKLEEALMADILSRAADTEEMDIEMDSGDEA
T1 sequence (Q09028 whole entry partner): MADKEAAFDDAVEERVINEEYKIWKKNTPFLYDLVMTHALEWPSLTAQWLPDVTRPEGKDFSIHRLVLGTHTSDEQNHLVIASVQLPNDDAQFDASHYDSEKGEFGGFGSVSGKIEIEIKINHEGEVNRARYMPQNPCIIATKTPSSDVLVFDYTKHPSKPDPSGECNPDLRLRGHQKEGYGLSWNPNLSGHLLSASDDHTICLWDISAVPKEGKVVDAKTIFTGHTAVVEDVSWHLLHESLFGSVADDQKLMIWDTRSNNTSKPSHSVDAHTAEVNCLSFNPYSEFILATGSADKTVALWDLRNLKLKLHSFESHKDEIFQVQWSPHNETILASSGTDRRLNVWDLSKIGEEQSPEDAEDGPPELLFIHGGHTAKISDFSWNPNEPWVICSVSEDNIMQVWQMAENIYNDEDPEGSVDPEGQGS
T1 sequence (Q16576 whole entry partner): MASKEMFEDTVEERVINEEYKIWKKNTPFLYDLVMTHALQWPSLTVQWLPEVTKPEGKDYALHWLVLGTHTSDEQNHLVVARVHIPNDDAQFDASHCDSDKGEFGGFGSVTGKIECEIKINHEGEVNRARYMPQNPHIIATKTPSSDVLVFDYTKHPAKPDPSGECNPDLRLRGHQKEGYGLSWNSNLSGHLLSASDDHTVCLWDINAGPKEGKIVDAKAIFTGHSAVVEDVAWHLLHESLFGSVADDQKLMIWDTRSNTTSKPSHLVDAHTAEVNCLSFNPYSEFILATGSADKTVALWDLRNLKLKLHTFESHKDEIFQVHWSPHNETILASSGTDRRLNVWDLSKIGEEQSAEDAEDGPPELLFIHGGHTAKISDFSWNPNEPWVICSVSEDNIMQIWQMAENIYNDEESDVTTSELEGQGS
Kind of assay: fluorescent HDAC assay (Boc-(Ac)Lys-AMC), HDAC1-NuRD complex. The settings on record: for IC50: IC50 HDAC1-NuRD. As for the experimental part:
(§1) Class I HDAC complexes were expressed and purified from mammalian HEK293F cells. […] We explored seven different HDAC complexes: five with HDAC1 (CoREST, MIER1, MiDAC, NuRD, and RERE); one with HDAC2 (CoREST), and one with HDAC3 (SMRT). Complexes ranged from having two components (HDAC1-RERE) to four components (HDAC1-NuRD) (Figure A, Table S1). […]
(§2) was resuspended in 4 mL of cleavage buffer. 30 -40 µL of 1.2 mg/mL Tobacco etch virus ( TEV) protease was added to the mixture and incubated overnight at 4 °C. After T EV cleavage, the protein was concentrated to 500 µL using the 4 mL Amicon®Ultra centrifugal fi lter (Merck Millipore) with a membrane nominal molecular weight cut off of 10 kDa. The concentrated protein was then filtered through a 0.22 µm centrifugal filter (Merck Millipore).
(§3) The complexes were purified on the AKTA purifier system (GE Healthcare) using either Superose 6 (10/300 GL) or Superdex 200 (10/300 GL) columns (GE Healthcare), which were equilibrated in the […]
(§4) Fractions were collected in a 96 -well plate (0.5 mL per fraction). 10 µL of sample from the fraction s, […]
(§5) analysis by SDS-PAGE gel. […]
(§6) the bottom of gel. SeeBlue Plus2 pre-stained marker (Invitrogen) was used as the molecular weight marker and the gel was stained using Instant Blue Coomassie Stain (Expedeon). Fractions containing purified protein complex were concentrated using the 0.5 mL Amicon Ultra centrifugal filter (Merck Millipore) with a membrane nominal molecular weight cut off of 10 kDa. Concentration of the protein was determined using a protein assay dye reagent (Bio-Rad). 200 µL of the reagent was diluted in 800 µL of ddH2O and used as a reagent blank. 2 µL of the protein sample was then added into the mixture […]
(§7) The concentration of the protein sample in mg/mL was then calculated by multiplying by ‘17’, which represents a factor calculated from a BSA standard curve. […]
(§8) before being transferred to a freezer at −80 °C.
(§9) HDAC activity and inhibition experiments against class I HDAC complexes were carried out using a […]
(§10) final reaction volume of 50 μL. 100 μM of Boc - (Ac)Lys -AMC was used as a substrate in each well.
(§11) All determinations were performed in triplicate. The inhibitors were dissolved at 50 mM in DMSO, and then further diluted with 10% DMSO HDAC assay buffer (10% DMSO, 50 mM Tris pH 7.5, 50 mM NaCl, 0.1 mg/mL BSA) to micromo lar concentrations. Serial dilutions of compounds were then carried out using 10% DMSO HDAC assay buffer to afford a range of concentrations. 10 μL of each of these […]
(§12) nM final concentration ) dissolved in HDAC assay buffer (50 mM Tris pH 7.5, 50 mM NaCl, 0.1 mg/mL BSA). For the inhibition experiments with inositol phosphates, HDAC complex was pre -incubated with inositol hexaphosphate (100 µM final concentration ) for 30 minutes at room temperature. The HDAC […]
(§13) complex and inhibitor were then incubated at 20 °C, 100 RPM for 2 hours . After incubation, 10 μL of the Boc -(Ac)Lys -AMC substrate, dissolved in HDAC assay buffer, was added to each well. The plate was incubate d at 30 °C, 100 RPM for 1 hour, followed by addition of 50 μL of a developer buffer (50 mM Tris pH 7.5, 100 mM NaCl, 10 mg/mL trypsin) to quench the reaction. The reaction was allowed to develop for 10 minutes at 30 °C, 100 RPM. Fluorescence intensity was determined with the Victor […]
(§14) IC50 values were calculated using GraphPad

The next assay deals with T2, HDAC1-RERE (Homo sapiens, UniProt Q13547).
T2 construct: We used HDAC complexes with the most components that could be stably expressed, with full-length proteins where feasible; made in house; host or cells: HEK293F
T2 sequence (Q13547 whole entry): as the sequence (Q13547 whole entry) above
T2 sequence (Q9P2R6 1-565 partner limits assumed): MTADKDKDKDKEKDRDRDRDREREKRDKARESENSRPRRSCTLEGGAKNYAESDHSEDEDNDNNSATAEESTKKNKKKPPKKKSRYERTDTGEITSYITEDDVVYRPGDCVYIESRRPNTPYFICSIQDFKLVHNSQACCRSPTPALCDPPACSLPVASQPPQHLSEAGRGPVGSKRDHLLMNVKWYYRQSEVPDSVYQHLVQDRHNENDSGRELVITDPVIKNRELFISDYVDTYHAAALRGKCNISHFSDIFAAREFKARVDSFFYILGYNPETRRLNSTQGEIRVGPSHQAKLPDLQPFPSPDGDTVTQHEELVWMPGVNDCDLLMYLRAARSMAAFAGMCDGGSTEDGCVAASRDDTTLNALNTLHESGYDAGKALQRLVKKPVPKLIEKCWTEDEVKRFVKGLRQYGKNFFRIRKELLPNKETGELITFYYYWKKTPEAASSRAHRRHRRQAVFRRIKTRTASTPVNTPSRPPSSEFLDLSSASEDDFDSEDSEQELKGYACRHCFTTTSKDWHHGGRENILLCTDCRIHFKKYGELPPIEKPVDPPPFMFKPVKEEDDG
The assay is described as follows: fluorescent HDAC assay (Boc-(Ac)Lys-AMC), HDAC1-RERE complex. The protocol:
as §1, §2, §3, §4, §5, §6, §7, §8, §9, §10, §11, §12, §13, §14

For a further assay, the target named is T3, HDAC1-CoREST (Homo sapiens, UniProt Q13547).
T3 construct: We used HDAC complexes with the most components that could be stably expressed, with full-length proteins where feasible; made in house; host or cells: HEK293F
T3 sequence (Q13547 whole entry, other chains not shown): as the sequence (Q13547 whole entry) above
T3 sequence (Q9UKL0 86-485 partner limits assumed, other chains not shown): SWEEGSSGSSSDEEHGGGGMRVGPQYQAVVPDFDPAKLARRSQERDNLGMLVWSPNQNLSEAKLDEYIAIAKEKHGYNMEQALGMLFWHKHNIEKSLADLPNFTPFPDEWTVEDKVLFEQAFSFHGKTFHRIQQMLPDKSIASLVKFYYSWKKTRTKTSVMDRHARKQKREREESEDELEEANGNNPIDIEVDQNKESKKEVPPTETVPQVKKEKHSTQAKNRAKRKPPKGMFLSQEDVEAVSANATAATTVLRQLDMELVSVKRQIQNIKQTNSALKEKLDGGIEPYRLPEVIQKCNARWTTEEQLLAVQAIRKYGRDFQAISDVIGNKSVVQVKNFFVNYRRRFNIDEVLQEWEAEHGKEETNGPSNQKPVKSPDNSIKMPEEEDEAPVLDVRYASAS
Kind of assay: fluorescent HDAC assay (Boc-(Ac)Lys-AMC), HDAC1-CoREST complex. As for the experimental part:
as §1, §2, §3, §4, §5, §6, §7, §8, §9, §10, §11, §12, §13, §14

For a further assay, the target named is T4, HDAC1-MIER1 (Homo sapiens, UniProt Q13547).
T4 construct: We used HDAC complexes with the most components that could be stably expressed, with full-length proteins where feasible; made in house; host or cells: HEK293F
T4 sequence (Q13547 whole entry, other chains not shown): as the sequence (Q13547 whole entry) above
T4 sequence (Q8N108 whole entry partner, other chains not shown): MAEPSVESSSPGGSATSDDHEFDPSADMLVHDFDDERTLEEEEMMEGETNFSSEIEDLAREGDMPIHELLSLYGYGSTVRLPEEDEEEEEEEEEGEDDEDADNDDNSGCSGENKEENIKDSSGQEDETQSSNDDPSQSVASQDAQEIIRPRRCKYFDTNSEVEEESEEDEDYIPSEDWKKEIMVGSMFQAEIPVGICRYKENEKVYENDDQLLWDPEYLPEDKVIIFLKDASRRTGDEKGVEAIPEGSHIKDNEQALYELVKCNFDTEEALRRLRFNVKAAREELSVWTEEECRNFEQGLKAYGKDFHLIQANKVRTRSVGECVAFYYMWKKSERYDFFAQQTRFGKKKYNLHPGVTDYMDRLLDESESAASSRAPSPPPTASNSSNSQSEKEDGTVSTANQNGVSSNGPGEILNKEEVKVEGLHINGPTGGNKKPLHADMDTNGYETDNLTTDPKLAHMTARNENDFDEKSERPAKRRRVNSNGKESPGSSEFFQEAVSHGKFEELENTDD
Kind of assay: fluorescent HDAC assay (Boc-(Ac)Lys-AMC), HDAC1-MIER1 complex. As for the experimental part: as §1, §2, §3, §4, §5, §6, §7, §8, §9, §10, §11, §12, §13, §14

The test system of another assay is class I HDAC complexes. The assay is described as follows: fluorescent HDAC assay, summaries over groups of complexes. The following applies: for IC50: without InsP6. As for the experimental part: as §1, §2
The complexes were purified on the AKTA purifier system (GE Healthcare) using either Superose 6 (10/300 GL) or Superdex 200 (10/300 GL) columns (GE Healthcare), which were equilibrated in the gel filtration buffer (25 mM Tris/Cl pH 7.5, 50 mM KOAc, 0.5 mM TCEP) before sample loading.
as §4, §5, §6, §7, §8, §9, §10, §11, §12, §13, §14

For a further assay, the target named is T5, HDAC1-MiDAC (Homo sapiens, UniProt Q13547).
T5 construct: We used HDAC complexes with the most components that could be stably expressed, with full-length proteins where feasible; made in house; host or cells: HEK293F
T5 sequence (Q13547 whole entry): as the sequence (Q13547 whole entry) above
T5 sequence (Q9H147 whole entry partner): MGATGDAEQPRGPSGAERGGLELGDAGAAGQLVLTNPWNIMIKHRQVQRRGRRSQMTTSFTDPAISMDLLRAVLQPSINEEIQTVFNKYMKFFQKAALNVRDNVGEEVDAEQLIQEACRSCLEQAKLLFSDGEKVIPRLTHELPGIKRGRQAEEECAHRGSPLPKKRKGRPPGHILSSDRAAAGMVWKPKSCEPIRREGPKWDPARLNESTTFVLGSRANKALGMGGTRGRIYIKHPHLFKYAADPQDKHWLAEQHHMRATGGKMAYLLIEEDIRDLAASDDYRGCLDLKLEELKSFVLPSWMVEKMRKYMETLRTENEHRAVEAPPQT
T5 sequence (Q6PJG2 628-887 partner limits assumed): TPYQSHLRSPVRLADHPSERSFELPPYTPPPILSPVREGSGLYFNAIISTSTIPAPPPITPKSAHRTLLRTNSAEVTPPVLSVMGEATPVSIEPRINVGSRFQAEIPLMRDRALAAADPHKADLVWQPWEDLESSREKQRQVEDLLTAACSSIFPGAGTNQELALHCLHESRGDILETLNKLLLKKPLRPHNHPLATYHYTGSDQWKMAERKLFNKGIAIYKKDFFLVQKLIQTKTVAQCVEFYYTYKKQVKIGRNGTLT
Kind of assay: fluorescent HDAC assay (Boc-(Ac)Lys-AMC), HDAC1-MiDAC complex. The protocol: as §1, §2, §3, §4, §5, §6, §7, §8, §9, §10, §11, §12, §13, §14

A further assay has as its target T6, HDAC3-SMRT (Homo sapiens, UniProt O15379).
T6 construct: We used HDAC complexes with the most components that could be stably expressed, with full-length proteins where feasible; made in house; host or cells: HEK293F
Kind of assay: fluorescent HDAC assay (Boc-(Ac)Lys-AMC), HDAC3-SMRT complex. As for the experimental part:
as §1, §2, §3, §4, §5, §6, §7, §8, §9, §10, §11
(§15) nM final concentration ) dissolved in HDAC assay buffer (50 mM Tris pH 7.5, 50 mM NaCl, 0.1 mg/mL BSA). […]
(§16) complex and inhibitor were then incubated at 20 °C, 100 RPM for 2 hours . […] Fluorescence intensity was determined with the Victor […]
as §14

The target in a further assay is T7, HDAC2-CoREST (Homo sapiens, UniProt Q92769).
T7 construct: We used HDAC complexes with the most components that could be stably expressed, with full-length proteins where feasible; made in house; host or cells: HEK293F
The assay is described as follows: fluorescent HDAC assay (Boc-(Ac)Lys-AMC), HDAC2-CoREST complex. The protocol: as §1, §2, §3, §4, §5, §6, §7, §8, §9, §10, §11, §15, §16, §14

As for `C/C=C1\NC(=O)[C@H]2CSSCC/C=C/[C@H](CC(=O)N[C@H](C(C)C)C(=O)N2)OC(=O)[C@H](C(C)C)NC1=O` [Romidepsin, romidepsin, reference compound], the IC50 at HDAC1-NuRD (+IP6 (100 μM InsP6)) was determined as 0.011 ± 0.001 µM; against HDAC1-NuRD (-IP6), 0.012 ± 0.001 µM; at HDAC1-RERE (IC50 HDAC1-RERE, +IP6 (100 μM InsP6)), 0.066 ± 0.003 µM; at HDAC1-RERE (IC50 HDAC1-RERE, -IP6) it was 0.078 ± 0.006 µM; against HDAC1-CoREST it was 0.002 µM; at HDAC1-CoREST (read-out: IC50 HDAC1-CoREST, +IP6 (100 μM InsP6)) it was 0.002 ± 0.0001 µM. Besides, the IC50 on HDAC1-CoREST (read-out: IC50 HDAC1-CoREST, -IP6) was 0.002 ± 0.0001 µM; against HDAC1-MIER1 (IC50 HDAC1-MIER1, +IP6 (100 μM InsP6)) it was 0.021 ± 0.002 µM; on HDAC1-MIER1 (IC50 HDAC1-MIER1, -IP6), 0.027 ± 0.002 µM; with class I HDAC complexes (range over HDAC1-MIER1, -MiDAC, -NuRD, -RERE, read-out: IC50, other HDAC1-containing complexes), 0.012 to 0.078 µM; in the assay with class I HDAC complexes (range over these complexes, read-out: IC50, HDAC1/2-CoREST and HDAC3-SMRT) it was 0.001 to 0.003 µM; on HDAC1-MiDAC (IC50 HDAC1-MIDAC, + InsP6, Figure 2), 0.021 µM. In addition, the IC50 against HDAC1-MiDAC (IC50 HDAC1-MIDAC, without InsP6, Figure 2) worked out at 0.021 µM; on HDAC1-MiDAC (IC50 HDAC1-MiDAC, +IP6 (100 μM InsP6)), 0.021 ± 0.002 µM; at HDAC1-MiDAC (IC50 HDAC1-MiDAC, -IP6) it was 0.021 ± 0.002 µM. In the assay on class I HDAC complexes (100 μM InsP6), the “effect of InsP6 on inhibition” value is reported as “no significant effects”.
`Nc1ccc(-c2ccncc2)cc1NC(=O)c1cnc(N2CCNCC2)cn1` [Compound 2]: the IC50 against HDAC3-SMRT (+IP6 (100 μM InsP6)) was 1.61 ± 0.1 µM; on HDAC3-SMRT (-IP6) it was 0.1 ± 0.008 µM; at HDAC1-RERE (+IP6 (100 μM InsP6), read-out: IC50 HDAC1-RERE), 309 ± 131 µM; at HDAC1-RERE (-IP6, read-out: IC50 HDAC1-RERE) it was over 300 µM; against HDAC2-CoREST (+IP6 (100 μM InsP6)), 26.7 ± 3.53 µM; at HDAC2-CoREST (-IP6) it was 0.052 ± 0.003 µM. Moreover, the IC50 was found to be 8.03 ± 0.51 µM at HDAC1-CoREST (+IP6 (100 μM InsP6), read-out: IC50 HDAC1-CoREST); 0.014 ± 0.001 µM at HDAC1-CoREST (-IP6, read-out: IC50 HDAC1-CoREST); 74 ± 19 µM at HDAC1-MIER1 (+IP6 (100 μM InsP6), read-out: IC50 HDAC1-MIER1); 0.016 ± 0.002 µM at HDAC1-MIER1 (-IP6, read-out: IC50 HDAC1-MIER1); 25.2 ± 8.84 µM on HDAC1-MiDAC (+IP6 (100 μM InsP6), read-out: IC50 HDAC1-MiDAC); 0.051 ± 0.017 µM at HDAC1-MiDAC (-IP6, read-out: IC50 HDAC1-MiDAC). Also, the “IC50 HDAC1-NuRD” value against HDAC1-NuRD (+IP6 (100 μM InsP6)) and against HDAC1-NuRD (-IP6) was “N.I” in each case. Moreover, the “decrease of inhibition of complexes containing HDAC1/2 with InsP6” value with class I HDAC complexes (100 μM InsP6 vs none) is over 500 fold. In the assay on class I HDAC complexes (100 μM InsP6 vs none), the “increase in IC50 with InsP6 against HDAC1/2-CoREST, HDAC1-MIER1 and HDAC1-MiDAC” value was 275–28,600 fold.
In the case of `O=P(O)(O)O[C@H]1[C@H](OP(=O)(O)O)[C@@H](OP(=O)(O)O)[C@H](OP(=O)(O)O)[C@@H](OP(=O)(O)O)[C@H]1OP(=O)(O)O` [InsP6, inositol hexaphosphate], the “effect on intrinsic HDAC activity of all complexes” value in the assay on class I HDAC complexes (complexes at 12.5 nM, Boc-Lys-(Ac)-AMC substrate) was “increased activity”.
